One compound from patent publication US20100048411A1, “SUBSTRATE FOR THE GROWTH OF CULTURED CELLS IN THREE DIMENSIONS” (REINNERVATE LIMITED, priority 2006, published 2010) can be followed below.

What all share (assay type): cell-based, human
For data set [1], the system named is HepG2 cells. The experiment in a line: transglutaminase assay of HepG2 cells challenged with methotrexate. How it is done:
(§1) The human hepatic carcinoma cell line, HepG2, was obtained from the American Type Culture Collection (ATCC). HepG2 cells were cultured at 37° C. in 5% CO2 in growth medium (Dulbecco's modified Eagle medium (D-MEM, Gibco/BRL) supplemented with 10% (v/v) fetal calf serum (FBS, Gibco/BRL), 100 μg.mL^−1 penicillin and 10 μg.mL^−1 streptomycin (Gibco/BRL)). Cells were passaged every 5-7 days. Confluent cultures of cells were washed with PBS, detached using trypsin/EDTA solution and cell number determined using a hemocytometer. Suspensions of HepG2 cells were then seeded at equal densities either directly into wells of a standard 6-welled plate (Nunc) or into modified well-inserts mounted with the polymer and located in wells of a 6-well plate. Cultures were maintained in growth medium which was changed every 3-4 days or as required.
(§2) Cells were seeded on 2-D and 3-D surfaces in triplicate and left to settle and adhere for 24 hours. […] Cells were subsequently incubated for 1, 3, 7 or 10 days, after which cultures were sampled and assayed for cell number/viability and levels of albumin and transglutaminase were determined.
The leakage of this enzyme is often used as a marker for in vitro toxicity testing and its presence indicates damage to cell membranes. […] The level of transglutaminase was analysed by means of a quantitative enzymatic assay (Sigma, UK) as previously described.

Data set [2] concerns HepG2 cells. The experiment in a line: SEM and TEM morphology of HepG2 cells challenged with methotrexate. How it is done:
Cells were seeded on 2-D and 3-D surfaces in triplicate and left to settle and adhere for 24 hours. The medium was then changed and replaced with medium containing different concentrations of MTX (no MTX (vehicle alone, control), 8 μM, 31 μM, and 125 μM). Cells were subsequently incubated for 1, 3, 7 or 10 days, after which cultures were sampled and assayed for cell number/viability and levels of albumin and transglutaminase were determined.
In preparation for SEM, cells grown on 2-D or 3-D substrates were fixed in 2% paraformaldehyde and 2.5% glutaraldehyde in Sorenson's phosphate buffer for 1 hour at room temperature. Samples were then rinsed in 0.1M phosphate buffer and immersed in 1% OsO4 (aq.) solution for 1 hour, then dehydrated in 50%, 70%, 95% and 100% ethanol for 5 minutes, four times for each respective ethanol change. Samples of fixed 2-D and 3-D cultures were then cut into smaller pieces (approximately 25 mm^2), mounted on specimen holders and dried from CO2 at 38° C. at 1200 psi. The samples were then sputter coated with a 7 nm layer of chromium and examined using a Hitachi S5200 SEM.
For TEM analysis, cells grown on 3-D substrates were fixed and treated as described above for SEM. However, subsequent to dehydration and being cut into small pieces, samples were embedded in resin (Araldite CY212, Agar Scientific) for 1 hour at 37° C. and then placed into pyramidal moulds at 60° C. overnight. For the preparation of cells grown on 2-D surfaces, cultures were fixed in 2% paraformaldehyde and 2.5% glutaraldehyde in Sorenson's phosphate buffer for 1 hour at room temperature. Cells were then scrapped from tissue culture plastic and pelleted at 15,000 rpm for 10 min. Pelleted cells were subsequently rinsed in 0.1M phosphate buffer and immersed in 1% OsO4 (aq.) solution for 1 hour, then dehydrated in 50%, 70%, 95% and 100% ethanol for 5 min, for times for each respective ethanol change. The dehydrated cell pellets were then soaked in resin (Araldite CY212) for 60 min at 37° C. […]

Data set [3] has as its system HepG2 cells. Nature of the data set: albumin secretion of HepG2 cells challenged with methotrexate. How it is done: as §1, §2
The production of albumin is often used as an indicator of hepatocyte metabolic activity. Levels of albumin were determined using a commercially available kit (Bioassay systems) based on an established method that utilizes bromocresol green which forms a coloured complex specifically with albumin that is detectable at 620 nm. Known quantities of human albumin were used to establish the standard curve. Specific levels of albumin secretion were normalized to total protein levels (as determined by a standard Bradford assay).

In data set [4] the test system is HepG2 cells. The experiment in a line: MTT viable cell number of HepG2 cells challenged with methotrexate on 2-D and 3-D substrates. How it is done: as §1
The number of viable cells was determined using a commercially available calorimetric assay (Promega) based on Mosmann's original method for measuring cell activity involving the conversion of a tetrazolium salt into a blue formazan product detectable by a spectrophotometer (570 nm). The assay was performed according to the manufacturer's instructions on HepG2 cells cultured on 2-D and 3-D substrates for various periods under alternative growth conditions.
as §2

As for `CN(Cc1cnc2nc(N)nc(N)c2n1)c1ccc(C(=O)N[C@@H](CCC(=O)O)C(=O)O)cc1` [MTX, methotrexate], the transglutaminase levels result in the data set with HepG2 cells [1] (2-D cultures, 31 μM MTX and above, versus 3-D culture) is “significantly higher levels of transglutaminase”; in the data set on HepG2 cells [1] (3-D cultures, increasing concentration of MTX) it was “did not cause a significant increase in transglutaminase levels”. The “ultra-structure (TEM)” value in the data set on HepG2 cells [2] (2-D cultures, 8 μM MTX) is “areas of cellular necrosis were also evident”; in the data set with HepG2 cells [2] (2-D cultures, high levels of MTX), “most cells became necrotic”; in the data set with HepG2 cells [2] (3-D culture, 125 μM MTX), “the nuclear membrane had an irregular morphology”. Further, the “albumin secretion (metabolic activity)” value with HepG2 cells [3] (cells cultured on scaffolds (3-D), 15.6 μM MTX) is recorded as “did begin to reduce albumin secretion”; with HepG2 cells [3] (cells grown in 2-D, 8 μM MTX), “sensitive”; with HepG2 cells [3] (cells grown in 3-D, 8 μM MTX), “did not significantly influence albumin secretion”. For the same compound, the “cell viability (MTT absorbance)” value with HepG2 cells [4] (3-D cultures, 62 μM MTX, compared to control values) is reported as “significant decrease in absorbance levels”; in the data set on HepG2 cells [4] (HepG2 monolayers (2-D), 15 μM MTX, after 24 hours), “gradual increase of absorbance”; in the data set on HepG2 cells [4] (cells on 2-D surfaces, increasing MTX concentrations), “visibly reduced”; in the data set on HepG2 cells [4] (monolayers (2-D), 7 days, 125 μM MTX) it was “sharp decrease in absorbance levels”.
